The values below come from patent US20080207521A1, “PEPTIDE LIGAND TO IMPAIR CANCER CELL MIGRATION” (priority 2005, published 2008).

Assay type in all cases: cell-based, human
Assay [1] concerns Wnt-5a antisense HB2 cells. The assay can be described thus: Adhesion of Wnt-5a antisense HB2 cells to collagen I (MTS). The conditions noted are these: for adhesion to collagen I, concentration-dependent analysis: 95% pure peptides, different concentrations. On the procedure: (§1) The adhesion assay was carried out as previously described (12). Briefly, cells were serum-depleted for 16 h, detached with Versene and allowed to adhere as single cells to collagen I for 60 (MDA-MB-468) or 90 min (HB2) at 37° C. Non-adherent cells were removed by washing with PBS. The adherent cells were incubated with a (3-(4,5-dimethylthiazol-2-yl)-5-(3-carboxymethoxyphenyl)-2-(-4-sulfophenyl)-2H-tetrazolium, inner salt (MTS) dye reduction assay (Promega, Madison, Wis.) and absorbance was measured at 490 nm using a Fluostar microplate reader from BMG LabTechnologies (GmbH, Offenberg, Germany). In each experiment a single value was calculated based on the mean of adhesion from six separate wells after the adhesion to plastic alone had been subtracted. The CM used as a control in the adhesion assays was obtained from confluent Wnt-5a overexpressing HB2 cells (for experiments with Wnt-5a antisense HB2 cells) or Wnt-5a overexpressing MCF-7 cells (for MDA-MB-468 cells) stably transfected with a vector over-expressing Wnt5a. A collected CM was always used within three days.
To control the specificity of the CM, it was incubated with either the Wnt-5a or a control Ab for 45 min at 37° C. Subsequently 10 μl Protein A Sepharose was added for 30 min and after the protein A-bound antibodies were collected by centrifugation the remaining supernatants were used for the experiments.
Effects of crude peptides on adhesion of Wnt-5a antisense HB2 cells to collagen. (A) Single cells were allowed to adhere for 90 min in the absence or presence of the indicated crude peptides (100 μM). The amounts of adhesive cells were analyzed as described in the methods and the results are given as means±SEM of 7 separate experiments. (B) Adhesion of Wnt-5a antisense HB2 cells to collagen was analyzed after pre-treating the cells with an anti-[…]1-integrin Ab for 45 min before letting them adhere for 90 min in the absence or presence of peptides 171 or 175 (100 μM) or CM. The amounts of adhesive cells were analyzed as described in the methods and the results are given as means±SEM of 6 separate experiments (C) The diagram outlines a control of the presently used CM. The cells were allowed to adhere to collagen I-coated wells in the absence or presence of normal CM or Wnt-5a depleted CM. The amounts of adhesive cells were analyzed as described in the methods and the results are given as means±SEM of 6 separate experiments. Ns=not significant, * p<0.05, ** p<0.01 and *** p<0.001.
(§2) Effects of the selected and pure peptides on the ability of Wnt-5a antisense HB2 cells to adhere and migrate. (A-E) The ability of the cells to adhere to collagen type I-coated wells was analyzed as previously described for FIG. 2 in the absence or presence of different concentrations of the indicated peptide. (F) Effect of the indicated peptides on migration of Wnt-5a antisense HB2 in a transwell migration assay. The cells were allowed to migrate for 18 h in the absence or presence of 100 μM peptide or 0.4 μg/ml of recombinant Wnt5a. The data are given as means±SEM of 6-7 separate experiments, each performed in triplicate. * p<0.05 and ** p<0.01.

Assay [2] deals with Wnt-5a antisense HB2 cells. The assay can be described thus: Migration of Wnt-5a antisense HB2 cells in modified Boyden chamber. To be noted: 95% pure peptide 100 μM; 18 h. On the procedure: Cell migration analyses were performed in a modified Boyden chamber with a polycarbonate membrane (10 μm thick with a porous diameter of 8.0 μm) separating the two chambers (Transwell®; Costar, Cambridge, Mass.). As indicated in some experiments the membranes were coated with collagen by adding collagen-I (10 μg/ml) diluted in 0.25% acetic acid to the upper chamber for 1 h at 37° C., after which it was washed three times with PBS. Each experiment was initiated by detaching the cells by Versene treatment for 10-20 min at 37° C., washed, and re-suspended as a single cell suspension in serum-free DMEM medium supplemented with 0.5% BSA. Together with the indicated agonist a 0.2 ml cell suspension (containing 25,000 MDA-MB-468 or 50,000 HB2 cells) was then added to the upper chamber of the transwell. The lower chamber was filled with 0.6 ml serum-free but BSA-containing DMEM medium supplemented with 1 ng/ml of the chemoattractant IGF-I. As a control, IGF-I was excluded in some wells in each separate experiment. The cells were allowed to migrate in the Boyden chamber for 18 h at 37° C. in a humidified atmosphere of 95% air and 5% CO2. The experiments were terminated by removing the non-migratory cells with a cotton-tipped applicator from the upper surface of the membranes. The remaining cells on the lower surface that had migrated through the membrane were stained for 20 min with 0.5% crystal violet diluted in 20% methanol/80% water. After washing the membranes the number of stained cells per membrane and well was counted in an inverted microscope. The value from each separate experiment represents the median value of three individual wells.
as §2

In assay [3] the test system is MDA-MB-468 cells. Nature of the assay: Adhesion of MDA-MB-468 breast cancer cells to collagen I (MTS). The conditions noted are these: pure peptide 100 μM; 60 min. On the procedure: as §1
Peptide-induced effects on adhesion and DDR1 phosphorylation in MDA-MB-468 breast cancer cells. (A) Western blot analysis of Wnt-5a protein expression in Wnt-5a antisense and Wnt-5a over-expressing HB2 cells in comparison to MDA-MB-468 tumour cells. The blot is representative of 9 separate experiments. (B) Peptide-induced effects on MDA-MB-468 tumour cell adhesion. The cells were allowed to adhere to collagen type I-coated wells for 60 min in the absence or presence of 100 μM of the indicated peptides or CM. The amounts of adhesive cells were analyzed as described in the methods and the results are given as means±SEM of 8 separate experiments. (C) MDA-MB-468 cell adhesion to collagen I-coated wells in the absence or presence of peptide 175 or a peptide with same amino acid sequence except for a substitution of cysteine for alanine (175Ala) or CM. The amount of adherent cells was estimated as in panel A and expressed as means±SEM of 6 separate experiments, ns=not significant, ** p<0.01 and *** p<0.001. (D) Single MDA-MB-468 cells were allowed to adhere to collagen I-coated plates for 60 min in the absence or presence of the indicated peptides (100 μM), CM or recombinant Wnt-5a (0.8 µg/ml). DDR1 immunoprecipitates were Western blotted with first an anti-phosphotyrosine Ab and then after stripping with an anti-DDR1 Ab. The blots shown are representative of 6 separate experiments.
Effects of peptide 175 modifications on its ability to induce MDA-MB-468 tumour cell adhesion and migration. (A) The cells were allowed to adhere for 60 min to collagen-I coated wells in the absence or presence of peptide 175, three stepwise N-terminal deletion variants of peptide 175 or a formylated version of the tested hexapeptide derived from peptide 175. The amounts of adhesive cells were analyzed as described in the methods and the results are given as means±SEM of 6 separate experiments. (B and C) The cells were allowed to migrate for 18 h in the absence or presence of 1 or 10 μM of peptide 175 (B) or the formylated hexapeptide (C). The data are given as means±SEM of 6 separate experiments, each performed in triplicate. * p<0.05, p<0.01.

Turning to “ADFRKVGDALKEKYD [peptide 169, Wnt-5a aa 242-256]”, the “adhesion to collagen I, concentration-dependent analysis” value in assay [1] is “increased when tested at higher purity”. The migration result in assay [2] is on record as “effectively decreased the migration”. Moreover, the “adhesion to collagen I” value in assay [3] is recorded as “significantly increased”.
The like results for “NKTSEGMDGCEL (Human) [peptide 175, Wnt-5a aa 311-322]” were, in that order, “most effective”, “effectively decreased the migration” and “significantly increased”.
For the sequence “SQLAGLSQGQKKL [peptide 171, Wnt-5a aa 55-67; negative control]”, in assay [1], the “adhesion to collagen I, concentration-dependent analysis” value is “lost or less consistent”. Moreover, the “adhesion to collagen after pre-treatment with blocking anti-β1-integrin Ab” value in assay [1] (anti-β1-integrin Ab 45 min at 37° C., peptide 100 μM, 90 min) is “most likely β1-integrin-dependent”. Further, in assay [1] (crude peptide (65% pure) 100 μM, 90 min), the “adhesion to collagen I” value is reported as “significant effect on adhesion”. The migration entry in assay [2] was “no effect on migration”.
